Where a name gives a salt, the structure may show the parent alone. Read-outs that look alike come from different tables or passages of the source.
Experiments:
[1] = tested on: phosphorylation of RSK1(S380) (the downstream target of ERK1/2); assay: Phospho-RSK1(S380) ELISA assay in HT-29 cells; assay type: cell-based, human; conditions: read-out: Mechanistic Cell Assay RSK1 Phos HT29 IC50
Outline: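 HT-29 colorectal carcinoma cells (B-RafV600E), plated overnight at 37° C./5% CO2, were treated with compound dilutions for 2 h. Lysates were analysed by phospho-RSK1(Ser380) sandwich ELISA with absorbance at 450 nm. IC50 came from a sigmoidal variable-slope dose-response fit.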

ERK2 = molecular target: T1, ERK2 (Homo sapiens, UniProt P28482); assay: ERK2 HTRF (biochemical) assay
T1 construct: purchased Jubilant Biosys
Method: (§1) ERK1 and ERK2 HTRF (Biochemical) Assays
These assays employed a homogeneous time resolved fluorescence (HTRF) technique. The compounds were serially diluted by half-log with concentrations ranging from 0.0005 to 10 uM in the assay buffer (50 mM Tris pH=7.5, 1 mM EGTA, 2 mM DTT, 10 mM MgCl2, 0.100 Tween-20) and 20 uL of substrate-ATP mix [1 uM Biotin-LC-Myelin Basic Protein (MBP) derivatized Peptide (Anaspec)-24 uM ATP (Sigma)] was added to each well of the assay plate. Then 10 uL of enzyme mix [25 nM ERK1 or ERK2 (Jubilant Biosys) in assay buffer] was added to each well. The plate was incubated at room temperature for 60 min with shaking. The HTRF mix [625 nM LANCER Ultra Europium-anti-phospho-MBP (Perkin Elmer) and 2 nM Phycolink® Streptavidin-Allophycocyanin (SA-APC) (Prozyme) in HTRF buffer (50 mM Tris-HCl pH=7.5, 100 mM NaCl, 0.1% BSA, 0.05% Tween20, 0.5 mM EDTA)] was prepared and 75 uL of this mix was added to the HTRF plate. After incubation for 60 min at room temperature, 10 uL of the reaction mixture was transferred to the HTRF assay plate and incubated for 45 min at room temperature with shaking. Plate was read using Pherastar in HTRF mode (excitation 337 nm, emission 665 & 620 nm). The IC50 values (half maximal inhibitory concentration values) were subsequently determined using a sigmoidal dose-response curve (variable slope) in GraphPad Prism® 5 software.

[2] = tested on: HT-29 (colorectal carcinoma, B-RafV600E) cells; assay: Cell proliferation (Alamar Blue) assay, HT-29; assay type: cell-based, human; conditions: Homo sapiens, HT-29, HT29 cells
Outline: (§2)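 A 72 h exposure to compound (3-fold series, typically 0.0005 to 10 uM) of cells seeded at 5000/well precedes a 1-3 h Alamar Blue (1×) incubation. Growth inhibition is quantified by fluorescence and fitted to give IC50.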

[3] = tested on: HCT116 (colorectal carcinoma, K Ras G13D) cells; assay: Cell proliferation (Alamar Blue) assay, HCT116; assay type: cell-based, human
Outline: as §2

ERK1 = molecular target: T2, ERK1 (Homo sapiens, UniProt P27361); assay: ERK1 HTRF (biochemical) assay
T2 construct: purchased Jubilant Biosys
Method: as §1
These assays employed a homogeneous time resolved fluorescence (HTRF) technique. […] The plate was incubated at room temperature for 60 min with shaking. […] The IC50 values (half maximal inhibitory concentration values) were subsequently determined using a sigmoidal dose-response curve (variable slope) in GraphPad Prism® 5 software.

[4] = Homo sapiens, HT-29, HT29 cells, phospho-RSK1(S380)
[5] = Homo sapiens, HCT-116, HCT116 cells
[6] = Homo sapiens, HT-29, HT29 cells

T2 sequence (P27361 whole entry): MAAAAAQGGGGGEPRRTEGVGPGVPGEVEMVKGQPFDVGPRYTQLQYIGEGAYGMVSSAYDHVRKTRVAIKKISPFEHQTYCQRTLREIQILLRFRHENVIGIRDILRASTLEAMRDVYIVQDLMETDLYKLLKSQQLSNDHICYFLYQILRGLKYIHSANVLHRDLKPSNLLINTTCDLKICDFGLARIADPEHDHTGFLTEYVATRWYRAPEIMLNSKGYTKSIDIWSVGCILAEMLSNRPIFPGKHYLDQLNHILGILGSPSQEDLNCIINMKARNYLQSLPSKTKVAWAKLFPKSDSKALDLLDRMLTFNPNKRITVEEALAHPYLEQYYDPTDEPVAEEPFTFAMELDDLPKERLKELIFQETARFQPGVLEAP
T1 sequence (P28482 whole entry): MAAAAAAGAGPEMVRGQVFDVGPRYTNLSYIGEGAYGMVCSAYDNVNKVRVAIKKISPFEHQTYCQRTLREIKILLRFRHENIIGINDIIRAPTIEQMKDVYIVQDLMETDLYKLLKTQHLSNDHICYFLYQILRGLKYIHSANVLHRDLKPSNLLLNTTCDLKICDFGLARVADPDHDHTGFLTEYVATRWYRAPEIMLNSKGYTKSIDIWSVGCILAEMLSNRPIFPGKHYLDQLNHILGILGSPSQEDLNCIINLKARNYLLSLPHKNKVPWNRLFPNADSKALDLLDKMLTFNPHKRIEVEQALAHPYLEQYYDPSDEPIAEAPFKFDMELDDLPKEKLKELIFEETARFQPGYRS

Compound	IC50 [1, 4]	IC50 (ERK2; HTRF biochemical assay)	IC50 [2]	IC50 [3, 5]	IC50 (ERK1; HTRF biochemical assay)	IC50 [1, 6]	IC50 (ERK2; HTRF)	IC50 (ERK1; HTRF)	IC50 ([1]; HT29 cells, phospho-RSK1(S380))	IC50 ([3]; HCT116 cells)
Cc1cnc(NC2CCOCC2)nc1-n1cnc(C(=O)NCc2cc(F)cc(Cl)c2CO)c1 [Compound #297, N-(3-Chloro-5-fluoro-2-(hydroxymethyl)benzyl)-1-(5-methyl-2-((tetrahydro-2H-pyran-4-yl)amino)pyrimidin-4-yl)-1H-imidazole-4-carboxamide]	250 to 500 nM	≤ 50 nM	≤ 100 nM	100 to 250 nM	< 50 nM					
Cc1cnc(NC2CC(F)(F)C2)nc1-n1cnc(C(=O)N[C@H](CN)c2cccc(Cl)c2)c1 [Compound #259, (S)—N-(2-Amino-1-(3-chlorophenyl)ethyl)-1-(2-((3,3-difluorocyclobutyl)amino)-5-methylpyrimidin-4-yl)-1H-imidazole-4-carboxamide]	100 to 250 nM	≤ 50 nM	100 to 250 nM	≤ 100 nM	< 50 nM					
Cc1cnc(N[C@H]2CCOC2)nc1-n1cnc(C(=O)NC(CN)c2cc(F)cc(Cl)c2)c1 (stereo partly drawn) [Example 282, N-(2-amino-1-(3-chloro-5-fluorophenyl)ethyl)-1-(5-methyl-2-(((S)-tetrahydrofuran-3-yl)amino)pyrimidin-4-yl)-1H-imidazole-4-carboxamide]	≤ 100 nM	≤ 50 nM	≤ 100 nM	≤ 100 nM	< 50 nM					
Cc1cnc(N[C@H]2CCOC2)nc1-n1cnc(C(=O)NCc2cccc(C(C)(C)C)c2)c1 [Example 327, (S)-1-(5-methyl-2-((tetrahydrofuran-3-yl)amino)pyrimidin-4-yl)-N-(3-tert-butylbenzyl)-1H-imidazole-4-carboxamide]			500 to 2500 nM	> 2500 nM		100 to 250 nM	≤ 50 nM	< 50 nM		
Cc1cnc(NC2CCOCC2)nc1-n1cnc(C(=O)NC(CN)c2cc(F)cc(Cl)c2)c1 (stereo not drawn) [Example 236, N-(2-amino-1-(3-chloro-5-fluorophenyl)ethyl)-1-(5-methyl-2-((tetrahydro-2H-pyran-4-yl)amino)pyrimidin-4-yl)-1H-imidazole-4-carboxamide]	≤ 100 nM	≤ 50 nM	≤ 100 nM	≤ 100 nM	< 50 nM					
CCC(=O)OCc1c(Cl)cccc1CNC(=O)c1cn(-c2nc(N[C@H]3CCOC3)ncc2C)cn1 [Example 346, (S)-2-chloro-6-((1-(5-methyl-2-((tetrahydrofuran-3-yl)amino)pyrimidin-4-yl)-1H-imidazole-4-carboxamido)-methyl)benzyl-propionate]							≤ 50 nM	50 to 100 nM		
Cc1cccc(CNC(=O)c2cn(-c3nc(NC4CCOCC4)ncc3C)cn2)n1 [Example 279, 1-(5-methyl-2-((tetrahydro-2H-pyran-4-yl)amino)pyrimidin-4-yl)-N-((6-methylpyridin-2-yl)methyl)-1H-imidazole-4-carboxamide]	100 to 250 nM	≤ 50 nM		500 to 2500 nM	< 50 nM					
Cc1cnc(Nc2ccccn2)cc1-n1ccc(C(=O)NC(CO)c2ccccc2)c1 (stereo not drawn) [Example 149, N-(2-hydroxy-1-phenylethyl)-1-(5-methyl-2-(pyridin-2-ylamino)pyridin-4-yl)-1H-pyrrole-3-carboxamide]	> 2500 nM	≤ 50 nM	> 2500 nM	> 2500 nM	50 to 100 nM					
Cc1cnc(NC2CCOCC2)nc1-n1cnc(C(=O)N[C@H](CN)c2cccc(Cl)c2)c1 [Compound #298, (S)—N-(2-Amino-1-(3-chlorophenyl)ethyl)-1-(5-methyl-2-((tetrahydro-2H-pyran-4-yl)amino)pyrimidin-4-yl)-1H-imidazole-4-carboxamide hydrochloride salt]		≤ 50 nM			< 50 nM					
Cc1cnc(Nc2ccc3c(c2)OC(F)(F)O3)cc1-n1cnc(C(=O)NC(CO)c2ccccc2)c1 (stereo not drawn) [Example 86, 1-(2-((2,2-difluoro-benzo[d][1,3]dioxol-5-yl)-amino)-5-methyl-pyridin-4-yl)-N-(2-hydroxy-1-phenyl-ethyl)-1H-imidazole-4-carboxamide]		50 to 100 nM	> 2500 nM	> 2500 nM	50 to 100 nM					
Cc1cnc(N[C@H]2CCOC2)nc1-n1cnc(C(=O)NCc2c(F)cccc2F)c1 [Example 316, (S)-N-(2,6-difluorobenzyl)-1-(5-methyl-2-((tetrahydrofuran-3-yl)amino)pyrimidin-4-yl)-1H-imidazole-4-carboxamide]			> 2500 nM	> 2500 nM		> 2500 nM	100 to 500 nM	500 to 2500 nM		
Cc1cnc(N[C@H]2CCOC2)nc1-n1cnc(C(=O)NCc2ccc(C(F)(F)F)c(F)c2)c1 [Example 321, (S)-N-(3-fluoro-4-(trifluoromethyl)benzyl)-1-(5-methyl-2-((tetrahydrofuran-3-yl)amino)pyrimidin-4-yl)-1H-imidazole-4-carboxamide]			> 2500 nM	> 2500 nM		500 to 2500 nM	≤ 50 nM	50 to 100 nM		

Other lines, results leading:

IC50 [1, 4]	IC50 (ERK2; HTRF biochemical assay)	IC50 [2]	IC50 [3, 5]	IC50 (ERK1; HTRF biochemical assay)	IC50 [1, 6]	IC50 (ERK2; HTRF)	IC50 (ERK1; HTRF)	IC50 ([1]; HT29 cells, phospho-RSK1(S380))	IC50 ([3]; HCT116 cells)	Compound
		> 2500 nM	> 2500 nM		500 to 2500 nM	≤ 50 nM	< 50 nM			Cc1cnc(N[C@H]2CCOC2)nc1-n1cnc(C(=O)NCc2cccc(Cl)c2Cl)c1 [Example 319, (S)-N-(2,3-dichlorobenzyl)-1-(5-methyl-2-((tetrahydrofuran-3-yl)amino)pyrimidin-4-yl)-1H-imidazole-4-carboxamide]
		> 2500 nM	> 2500 nM		> 2500 nM	≤ 50 nM	50 to 100 nM			Cc1cnc(N[C@H]2CCOC2)nc1-n1cnc(C(=O)NCc2cccc(C(F)(F)F)c2Cl)c1 [Example 317, (S)-N-(2-chloro-3-(trifluoromethyl)benzyl)-1-(5-methyl-2-((tetrahydrofuran-3-yl)amino)pyrimidin-4-yl)-1H-imidazole-4-carboxamide]
		> 2500 nM	> 2500 nM		> 2500 nM	500 to 2500 nM	500 to 2500 nM			Cc1cnc(N[C@H]2CCOC2)nc1-n1cnc(C(=O)NCc2c(Cl)cccc2C(F)(F)F)c1 [Example 322, (S)-N-(2-chloro-6-(trifluoromethyl)benzyl)-1-(5-methyl-2-((tetrahydrofuran-3-yl)amino)pyrimidin-4-yl)-1H-imidazole-4-carboxamide]
		> 2500 nM	> 2500 nM		> 2500 nM	≤ 50 nM	< 50 nM			Cc1cnc(N[C@H]2CCOC2)nc1-n1cnc(C(=O)NCc2cccc(Cl)c2F)c1 [Example 315, (S)-N-(3-chloro-2-fluorobenzyl)-1-(5-methyl-2-((tetrahydrofuran-3-yl)amino)pyrimidin-4-yl)-1H-imidazole-4-carboxamide]
		> 2500 nM	> 2500 nM		250 to 500 nM	≤ 50 nM	< 50 nM			Cc1cccc(CNC(=O)c2cn(-c3nc(N[C@H]4CCOC4)ncc3C)cn2)c1 [Example 323, (S)-1-(5-methyl-2-((tetrahydrofuran-3-yl)amino)pyrimidin-4-yl)-N-(3-methylbenzyl)-1H-imidazole-4-carboxamide]
	≤ 50 nM			< 50 nM				500 to 2500 nM	> 2500 nM	N-(1-(3-chlorophenyl)-2-hydroxypropyl)-1-(5-methyl-2-((tetrahydro-2H-pyran-4-yl)amino)pyrimidin-4-yl)-1H-imidazole-4-carboxamide (isomer #1) [Example 253]
